The values below come from patent US20200325505A1, “FILAMENTOUS FUNGI CAPABLE OF PRODUCING VERY LONG CHAIN FATTY ACIDS” (UT-Battelle, LLC, priority 2019, published 2020).

Read-outs that look alike come from different tables or passages of the source. Residues, ends and D or L forms follow the SMILES beside them.

The subject of the data set is Mortierella elongata AG77. Nature of the data set: Carbon source utilisation in Biolog 96-well plates, formazan formation after tetrazolium addition. Format: cell-based. The following applies: for Metabolized: Metabolized = more formazan formation than a control containing no carbon source, observed visually at 2 h, 24 h, 148 h; for Carbon sources that Mortierella elongata AG77 can metabolize: summary of Table 3. The procedure: Two 300 mL volumes of growth medium comprising 1 g/L KH2PO4, 1 g/L MgSO4 7H2O, 0.1 g/L CaCl2, 0.02 g/L FeNaEDTA, 0.1 g/L NaCl, and either 1 g/L NH4NO3 or 20 g/L sucrose were prepared. Acidity was adjusted to 5.5 using NaOH and volumes of growth medium were autoclaved 30 min at 121° C. to sterilize. Aliquots of 200 μL of carbon-free medium or nitrogen-free medium were pipetted into each well of a set of 96-well plates previously prepared with lyophilized putative carbon or nitrogen sources (Biolog Inc., Hayward, Calif.). Inocula were prepared by perforating a culture of Mortierella elongata AG77 grown on 20 g/L potato dextrose agar with a 3 mm diameter cork borer and separating the surface mycelial mat from the solid growth medium using tweezers. Each well was inoculated with one inoculum. Cultures were incubated at 21° C. for 24 hours to allow metabolic changes to stabilize, and then 100 μL of 3 g/L tetrazolium chloride in water was added to each well. Formazan formation was observed visually at 2 h, 24 h, and 148 h.
Conclusions were based on rate and intensity of formazan formation using the 3-4,5-dimethylthiazol-2-yl)-2,5-diphenyltetrazolium bromide (MTT) assay. “Metabolized” indicates more formazan formation than a control containing no carbon source, and “Toxic” indicates less formazan formation than a control containing no carbon source. “Metabolized” and “Toxic” assignments are mutually exclusive. In this example, a compound may be “Metabolized” or “Toxic,” but not both.

Where [1] appears, read: compound as carbon source, Toxic = less formazan formation than a control containing no carbon source.

Turning to `O=C(O)C[C@@H](O)C(=O)O` [D-Malic Acid], the Metabolized entry (compound as carbon source) was “no”. For the same compound, the Toxic entry under setting [1] is “no”.

With `OC[C@@H](O)[C@@H](O)[C@H](O)[C@H](O)CO` [D-Mannitol], the Toxic result is “no”. Also, the Metabolized result (compound as carbon source) is recorded as “no”.

`O=C[C@@H](O)[C@@H](O)[C@H](O)[C@H](O)CO` [D-Mannose]: the Toxic entry is “no”. For the setting “compound as carbon source”, the Metabolized result was “no”.

Turning to `OC[C@H]1O[C@@](CO)(O[C@H]2O[C@H](CO)[C@@H](O)[C@H](O)[C@H]2O)[C@@H](O[C@H]2O[C@H](CO)[C@@H](O)[C@H](O)[C@H]2O)[C@@H]1O` [D-Melezitose], the Metabolized result (compound as carbon source) is reported as “no”. Also, the Toxic result under setting [1] is recorded as “no”.

Consider `OC[C@H]1O[C@H](OCC2O[C@@H](O)[C@H](O)[C@@H](O)[C@@H]2O)[C@H](O)[C@@H](O)[C@H]1O` (stereo partly drawn) [D-Melibiose], for which the Metabolized result (compound as carbon source) is listed as “no”. Moreover, the Toxic result under setting [1] is “no”.

As to `O=C(CO)[C@H](O)[C@H](O)[C@H](O)CO` [D-Psicose], the Toxic entry is “no” and the “Carbon sources that Mortierella elongata AG77 can metabolize” value is “can metabolize”. In addition, the Metabolized entry (compound as carbon source) is given as “yes”.

For `OC[C@H]1O[C@H](OC[C@H]2O[C@H](O[C@]3(CO)O[C@H](CO)[C@@H](O)[C@@H]3O)[C@H](O)[C@@H](O)[C@@H]2O)[C@H](O)[C@@H](O)[C@H]1O` [D-Raffinose], the Toxic entry is reported as “no” and the “Carbon sources that Mortierella elongata AG77 can metabolize” value was “can metabolize”. Besides, the Metabolized entry (compound as carbon source) is “yes”.

Regarding `O=C1O[C@H](CO)[C@@H](O)[C@H]1O` [D-Ribono-1,4-Lactone], for the setting “compound as carbon source”, the Metabolized entry is “no”. The Toxic entry under setting [1] is listed as “no”.

For `O=C[C@H](O)[C@H](O)[C@H](O)CO` [D-Ribose], the Toxic result was “no”. For the same compound, the Metabolized result (compound as carbon source) is “no”.

In the case of `O=C(O)[C@@H](O)[C@@H](O)[C@H](O)[C@@H](O)C(=O)O` [D-Saccharic Acid], the Toxic entry is reported as “no”. The Metabolized entry (compound as carbon source) is “no”.

For `OC[C@@H](O)[C@@H](O)[C@H](O)[C@@H](O)CO` [D-Sorbitol], the Toxic result was “no” and the “Carbon sources that Mortierella elongata AG77 can metabolize” value is recorded as “can metabolize”. The Metabolized result (compound as carbon source) is listed as “yes”.

Regarding `O=C(CO)[C@@H](O)[C@@H](O)[C@H](O)CO` [D-Tagatose], the Toxic result is reported as “no”. Where the note is “compound as carbon source”, the Metabolized entry is “no”.

Turning to `O=C(O)[C@@H](O)[C@H](O)C(=O)O` [D-Tartaric Acid], the Metabolized entry (compound as carbon source) is on record as “no”.

On to `C[C@H](O)[C@@H](N)C(=O)O` [D-Threonine], for which the Toxic entry is reported as “no” and the “Carbon sources that Mortierella elongata AG77 can metabolize” value was “can metabolize”. Moreover, for the setting “compound as carbon source”, the Metabolized result is listed as “yes”.

Consider `OC[C@H]1O[C@H](O[C@H]2O[C@H](CO)[C@@H](O)[C@H](O)[C@H]2O)[C@H](O)[C@@H](O)[C@@H]1O` [D-Trehalose], for which the “Carbon sources that Mortierella elongata AG77 can metabolize” value is “can metabolize”. Besides, where the note is “compound as carbon source”, the Metabolized entry is reported as “yes”. Also, the Toxic result under setting [1] is recorded as “no”.

Consider `O=C[C@H](O)[C@@H](O)[C@H](O)CO` [D-Xylose], for which the Toxic entry is listed as “no”. In addition, the Metabolized result (compound as carbon source) is given as “no”.

For `OC[C@@H](O)[C@H](O)[C@H](O)[C@@H](O)CO` [Dulcitol], the Toxic entry is listed as “no”. For the same compound, where the note is “compound as carbon source”, the Metabolized entry is “no”.

Turning to `O=CO` [Formic Acid], for the setting “compound as carbon source”, the Metabolized result was “no”. The Toxic entry under setting [1] was “no”.

On to `O=C(O)/C=C/C(=O)O` [Fumaric Acid], for which the Toxic result is on record as “no” and the “Carbon sources that Mortierella elongata AG77 can metabolize” value is given as “can metabolize”. Besides, the Metabolized result (compound as carbon source) was “yes”.

As to `OCC(O)CO` [Glycerol], the Toxic result is “no” and the “Carbon sources that Mortierella elongata AG77 can metabolize” value is recorded as “can metabolize”. Besides, the Metabolized entry (compound as carbon source) is recorded as “yes”.

For the compound `O=C(O)CO` [Glycolic Acid], the “Carbon sources that Mortierella elongata AG77 can metabolize” value is “can metabolize”. Also, the Metabolized entry (compound as carbon source) was “yes”. Under setting [1], the Toxic entry is given as “no”.

On to `NCC(=O)N[C@@H](CC(=O)O)C(=O)O` [Glycyl-L-Aspartic Acid] (H-Gly-Asp-OH), for which the “Carbon sources that Mortierella elongata AG77 can metabolize” value was “can metabolize”. For the same compound, the Metabolized entry (compound as carbon source) is reported as “yes”. The Toxic entry under setting [1] is “no”.

For the compound `NCC(=O)N1CCC[C@H]1C(=O)O` [Glycyl-L-Proline] (H-Gly-Pro-OH), the Toxic entry was “no”. Further, the Metabolized entry (compound as carbon source) is listed as “no”.

Consider `O=CC(=O)O` [Glyoxylic Acid], for which, where the note is “compound as carbon source”, the Metabolized result is “no”.

`C=C(CC(=O)O)C(=O)O` [Itaconic Acid]: the Metabolized result (compound as carbon source) is listed as “no”. Under setting [1], the Toxic entry is on record as “no”.

Take `C[C@H](N)C(N)=O` [L-Alaninamide]: the “Carbon sources that Mortierella elongata AG77 can metabolize” value is listed as “can metabolize”. In addition, the Metabolized entry (compound as carbon source) was “yes”. Under setting [1], the Toxic entry is “no”.

For the compound `O=C[C@H](O)[C@@H](O)[C@@H](O)CO` [L-Arabinose], the Toxic result was “no”. For the same compound, where the note is “compound as carbon source”, the Metabolized entry is listed as “no”.

Take `OC[C@H](O)C(O)[C@@H](O)CO` [L-Arabitol]: under “compound as carbon source”, the Metabolized entry is recorded as “no”. The Toxic result under setting [1] is given as “no”.

As for `C[C@H](O)[C@@H](O)[C@@H](O)[C@H](O)C=O` [L-Fucose], the Metabolized entry (compound as carbon source) is “no”. Under setting [1], the Toxic entry is recorded as “no”.

As for `O=C1O[C@H]([C@@H](O)CO)[C@@H](O)[C@@H]1O` [L-Galactonic Acid-γ-Lactone], the “Carbon sources that Mortierella elongata AG77 can metabolize” value is “can metabolize”. In addition, where the note is “compound as carbon source”, the Metabolized result is given as “yes”. In addition, the Toxic result under setting [1] is recorded as “no”.

For the compound `O=C[C@@H](O)[C@H](O)[C@@H](O)[C@@H](O)CO` [L-Glucose], the Toxic entry was “no”. Moreover, the Metabolized entry (compound as carbon source) is recorded as “no”.

Turning to `C[C@H](O)C(=O)O` [L-Lactic Acid], the “Carbon sources that Mortierella elongata AG77 can metabolize” value is reported as “can metabolize”. Besides, under “compound as carbon source”, the Metabolized result was “yes”. For the same compound, the Toxic entry under setting [1] is listed as “no”.

With `O=C[C@H](O)[C@H](O)[C@@H](O)CO` [L-Lyxose], the Toxic result was “no”. Further, the Metabolized result (compound as carbon source) is on record as “no”.

On to `O=C(O)C[C@H](O)C(=O)O` [L-Malic Acid], for which, under “compound as carbon source”, the Metabolized entry is on record as “no”. Also, the Toxic result under setting [1] is recorded as “no”.

Take `C[C@H](O)[C@H](O)[C@@H](O)[C@@H](O)C=O` [L-Rhamnose]: the Metabolized entry (compound as carbon source) is “no”. In addition, under setting [1], the Toxic entry is recorded as “no”.

Turning to `O=C(CO)[C@@H](O)[C@H](O)[C@@H](O)CO` [L-Sorbose], the Toxic result is recorded as “no”. Also, the Metabolized entry (compound as carbon source) is on record as “no”.

Take `O=C(O)[C@H](O)[C@@H](O)C(=O)O` [L-Tartaric Acid]: the Metabolized result (compound as carbon source) is “no”.

In the case of `OC[C@@H](O)[C@@H](O[C@@H]1O[C@H](CO)[C@H](O)[C@H](O)[C@H]1O)[C@H](O)[C@@H](O)CO` [Lactitol], the Toxic result is given as “no”. Further, the Metabolized result (compound as carbon source) is on record as “no”.

Take `O=C(O)CC(=O)O` [Malonic Acid]: the Metabolized result (compound as carbon source) is “no”.

For `OC[C@@H](O)[C@@H](O[C@H]1O[C@H](CO)[C@@H](O)[C@H](O)[C@H]1O)[C@H](O)[C@@H](O)CO` [Maltitol], the Metabolized result (compound as carbon source) was “no”. Under setting [1], the Toxic result is “no”.

Turning to `OC[C@H]1O[C@H](O[C@H]2[C@H](O)[C@@H](O)[C@H](O)O[C@@H]2CO)[C@H](O)[C@@H](O)[C@@H]1O` [Maltose], the “Carbon sources that Mortierella elongata AG77 can metabolize” value was “can metabolize”. For the same compound, the Metabolized result (compound as carbon source) is “yes”.

For `O=C(O)[C@H](O)[C@@H](O)[C@H](O)[C@H](O)CO[C@H]1O[C@H](CO)[C@H](O)[C@H](O)[C@H]1O` [Melibionic Acid], the Metabolized entry (compound as carbon source) was “no”. Also, the Toxic entry under setting [1] is on record as “no”.

On to `COC(=O)C(C)=O` [Methyl Pyruvate], for which the “Carbon sources that Mortierella elongata AG77 can metabolize” value is “can metabolize”. Further, the Metabolized result (compound as carbon source) is given as “yes”. Further, the Toxic result under setting [1] was “no”.

On to `COC(=O)CCC(=O)O` [Mono Methyl Succinate], for which the Toxic entry is “no”.

`O=C(O)[C@@H](O)[C@H](O)[C@H](O)[C@@H](O)C(=O)O` [Mucic Acid]: the Toxic entry was “no”. Moreover, for the setting “compound as carbon source”, the Metabolized result was “no”.

As for `CC(=O)N[C@@H](CO)[C@@H](O)[C@H](O)[C@H](O)CO` [N-Acetyl-D-Glucosaminitol], the Metabolized result (compound as carbon source) was “no”. Moreover, the Toxic result under setting [1] is recorded as “no”.

For the compound `CC(=O)N[C@H]1[C@H]([C@H](O)[C@H](O)CO)OC(O)(C(=O)O)C[C@@H]1O` (stereo partly shown) [N-Acetyl-Neuraminic Acid], the “Carbon sources that Mortierella elongata AG77 can metabolize” value was “can metabolize”. Moreover, the Metabolized entry (compound as carbon source) is on record as “yes”. Besides, under setting [1], the Toxic entry is “no”.

For `CC(=O)N[C@H]1[C@@H](O)[C@H](O)[C@@H](CO)O[C@H]1O` [N-Acetyl-β-D-Mannosamine], the “Carbon sources that Mortierella elongata AG77 can metabolize” value was “can metabolize”. Besides, the Metabolized entry (compound as carbon source) is reported as “yes”. The Toxic entry under setting [1] is “no”.

Turning to `O=C(O)C(=O)O` [Oxalic Acid], for the setting “compound as carbon source”, the Metabolized entry was “no”.

With `O=C(O)C(=O)C(C(=O)O)C(O)C(=O)O` (stereo not shown) [Oxalomalic Acid], the Toxic entry is given as “no”. Moreover, the Metabolized result (compound as carbon source) is “no”.
